From patent US7427663B2, “Cardio myopeptidin, the production and the use thereof” (Dalian Zhen-Ao Pharmaceutical Co., Ltd., priority 2003, dated 2008)

Key:
[1] = test system: succinic dehydrogenase of primarily cultured myocardial cells; assay: Influence of each peak of cardio myopeptidin on enzyme activity of myocardial cells (MTT method); format: cell-based; conditions: Adriamycin damage group; normal control 0.344
Source text: Polypeptide content in cardio myopeptidin is 75-90[…], free amino acids content is 6-15[…], and there is a little nucleic acid and microelement.

myocardial cells = assay: Influence of pH and time on activity of cardio myopeptidin (MTT method); format: cell-based; conditions: Adriamycin damage group, without cardio myopeptidin; normal control 0.691
[2] = test system: myocardial ischemia in cats; assay: Epicardium electrocardiogram of cats with persistent myocardial ischemia, therapeutic administration; format: in vivo; conditions: cat, 2.0 mg/Kg i.v.
[3] = test system: cardiac muscle of ischemia-reperfusion in rats; assay: Damage of myocardial ultrastructure caused by ischemia-reperfusion, electron microscope semi-quantitative assay; format: in vivo; conditions: rat, 2.0 mg/Kg i.v.
Method: (§1) By reference to literature methods, sublingually administer cardio myopeptidin or the reference drug through intravenous injection after rat's coronary artery LAD is ligated for 5 minutes; loosen the ligature after 10 minutes of myocardial ischemia, and reperfusion for 30 min, and simultaneously record II-lead ECG. Blood is taken from the abdominal aorta after the completion of reperfusion, and the heart is perfused and fixed with 6% glutaraldehyde and 0.1 M sodium cacodylate buffer for 2 hours after it is perfused and cleaned with physiological saline water through the aorta. Then the ischemic cardiac muscle from the left frontal wall is picked and cut into 1 mm^3 slices. The slices are immersed in 4% glutaraldehyde and 0.1 M sodium cacodylate buffer to be fixed for the preparation of electron microscope specimens. Slice the specimen of each cardiac muscle after fixation with osmic acid, serial dehydration with acetone, embedment and polymerization with epoxy resin 618, and for each cardiac muscle, cut 4 embedded pieces. Randomly take 20 photos for each group of cardiac muscle of animals with the negative magnification equal to 12000. Observe the change in the ultrastructure, and classify and determine the value according to categories of pathologic changes and severity of damage of mitochondrion, myocardial fiber and other components. […]

[4] = test system: myocardial ischemia-reperfusion in rats; assay: Plasma FFA content of rats with ischemia-reperfusion; format: in vivo; conditions: rat I-R, 2.0 mg/kg
Method: as §1

[5] = test system: myocardial oxygen metabolism in dogs; assay: Myocardial oxygen consumption and oxygen uptake in anesthetized dogs; format: in vivo; conditions: dog, i.v. 2 mg/kg
Source text: Anesthetize dogs with sodium pentobarbital. Conduct endotracheal intubation and artificial respiration, and use an RM-86 polygraph to monitor electrocardiogram and aortic pressure. Open the thoracic cavity from the left side to expose the heart. Intubate a cannula from the apex of the heart to the left ventricle, and record the pressure of the left ventricle and pressure change rate (±dp/dt max). In order to know the change in circulation of the coronary artery and myocardial oxygen metabolism, separate the left circumflex branch of the coronary artery of dogs, use an electromagnetic flowmeter to measure the flow of coronary artery, and calculate the resistance against the coronary artery. Intubate a cannula from the external jugular vein of dogs to the […]. Simultaneously draw the arterial blood and the coronary sinus blood. Use a blood gas analyzer (Model ABL-3, Denmark) to determine blood oxygen content, and calculate myocardial oxygen uptake and myocardial oxygen consumption. Keep the arterial blood pH, CO2 and partial pressure of oxygen of dogs within normal range. The dose of MTP is 2.5 and 10 mg/kg, and the interval between two doses is 30 min. Continuously record various parameters after administration until they return to the control value. Take arterial blood and coronary sinus blood at 2, 5, 10 and 30 minutes after administration. Determine blood gas content, calculate myocardial oxygen uptake and myocardial oxygen consumption, and observe the effect of MTP on myocardial oxygen metabolism.

[6] = test system: isolated rat heart with myocardial ischemia-reperfusion; assay: Langendorff isolated rat heart, CPK and LDH of coronary effluent; conditions: 1 μg/ml
Method: (2) Refer to literature methods to make Langendorff's cardiac hypoxia-reoxygenation damage animal model of isolated rat heart. Conduct Langendorff's perfusion with K—H liquid with high Ca2+ and low K+ and persistent filling of mixed gas. Hook two platinum filaments on the apex of heart and the root of the left cardiac atrium respectively, and record the electrocardiogram. Ligate LAD for 10 min and loosen for 15 min. Conduct perfusion with K—H liquid with corresponding concentrations of cardio myopeptidin from 5 min before ligation to 5 min after loosening for the cardio myopeptidin-treated group. Determine the related indexes of effluent before and after 8 min of ligation and 2 min after loosening respectively. […]

[7] = test system: myocardial infarction in pigs; assay: Myocardial infarction in miniature pigs (coronary ligation); format: in vivo; conditions: pig, phleboclysis 0.25 mg/kg
Method: Anesthetize a healthy, grown male miniature pig with the body weight of 20.9±4.0 kg with 30 mg/kg of 3% sodium pentobarbital through auditory intravenous injection. Connect the tracheal cannula to a SC-3 electro-respirator to perform artificial positive pressure respiration. Open the thoracic cavity from the third rib at the left side to expose the heart. Separate the anterior descending branch of the coronary artery (about ⅓ distant from the apex of heart), and put a silk thread 0^□ beneath it for ligation. Place a multi-point fixed type epicardium electrode with 20 points on the myocardial surface under the ligature. Record the myocardial electrical signals on an RTA-1200 model hot-wave recorder of a RM-6300 model eight-lead polygraph through a ZYS1-I model numerical control epicardium scanner and AB-601G bioelectric amplifier, and 1 mV standard voltage is equal to 1 mm. Under the control of the automatic timer, measure the change in the electrocardiogram at those 20 points. Intubate a cannula from the femoral artery to the abdominal aorta, and connect it to a AP-641G blood pressure amplifier through a TP-400T model pressotransduer to measure the mean blood pressure (MBP). […]

[8] = test system: myocardial ischemia-reperfusion in rats; assay: Cardiac muscle and plasma CPK, LDH, MDA of rats with ischemia-reperfusion, prophylactic administration; format: in vivo; conditions: rat I-R
Method: (1) Refer to literature methods to make myocardial ischemia-reperfusion damage animal model. Ligate the left anterior descending branch of the coronary artery of rats for 10 minutes after MTP or verapamil (Ver) is sublingually administered through intravenous injection for 5 min, perfuse for 30 min. Continuously observe II-lead ECG through a polygraph. Take 2 ml left heart blood after the completion of reperfusion, and take the cardiac muscle at the cardiac apex of the left ventricle after the heart is perfused through the aorta. […] Grouping of the experiment: In the experiment, the rats are divided into seven groups: pseudo-operation control group (P); ischemia-reperfusion group (ischemia-reperfusion, I-R); ischemia-reperfusion+normal saline group (I-R+N.S); ischemia-reperfusion +0.5, 2.0 or 10.0 mg/Kg cardio myopeptidin groups (I-R+MTP) and ischemia-reperfusion +1.0 mg/Kg verapamil group (I-R+Ver), 8-10 animals in each group.

For `COc1cccc2c1C(=O)c1c(O)c3c(c(O)c1C2=O)C[C@@](O)(C(=O)CO)C[C@@H]3O[C@H]1C[C@H](N)[C@H](O)[C@H](C)O1` [Adriamycin], the “OD value (MTT method)” value [1] was 0.272 ± 0.015 and the “OD value (MTT method)” value (myocardial cells) was 0.274 ± 0.011.
With `CC(C)NCC(O)COc1cccc2ccccc12` (stereo not drawn) [propranolol] the ΣNST ([2]; ischemia group 11.1) was 6.17 ± 1.5 Num, the ΣΔST ([2]; ischemia group 40.5) was 22.8 ± 6.4 mV and the “Value of pathological changes ± SD” value [3] was 0.71 ± 0.84. The “FFA (plasma)” value [4] was 77.1 ± 6.4 μmol/100 ml, the “myocardial oxygen consumption (MVO2), change value after administration” value ([5]; 2 min) was −31.0 ± 13 % and the “myocardial oxygen uptake (O2 ext), change value after administration” value ([5]; 2 min) was −3.00 ± 1.0%. For the same compound, the “myocardial oxygen consumption (MVO2), change value after administration” value ([5]; 5 min) was −30.0 ± 13 %, the “myocardial oxygen uptake (O2 ext), change value after administration” value ([5]; 5 min) was 3.00 ± 7.0% and the “myocardial oxygen consumption (MVO2), change value after administration” value ([5]; 10 min) was −33.0 ± 10 %. The “myocardial oxygen uptake (O2 ext), change value after administration” value ([5]; 10 min) was 3.00 ± 8.0%, the “myocardial oxygen consumption (MVO2), change value after administration” value ([5]; 30 min) was −32.0 ± 14 % and the “myocardial oxygen uptake (O2 ext), change value after administration” value ([5]; 30 min) was 3.00 ± 9.0%.
`COc1ccc(CCN(C)CCCC(C#N)(c2ccc(OC)c(OC)c2)C(C)C)cc1OC` (stereo not drawn) [verapamil] was tested, and the “Coronary effluent CPK” value ([6]; during ischemia) was 16.2 ± 2.8 U/L, the “Coronary effluent LDH” value ([6]; during ischemia) was 13.0 ± 0.62 U/L and the “Coronary effluent CPK” value ([6]; perfusion) was 16.0 ± 1.8 U/L. For the same compound, the “Coronary effluent LDH” value ([6]; perfusion) was 14.3 ± 0.95 U/L, the “Coronary effluent CPK” value ([6]; prior ischemia) was 16.3 ± 2.0 U/L and the “Coronary effluent LDH” value ([6]; prior ischemia) was 11.4 ± 0.78 U/L. The Infarction range [7] was 12.5 ± 3.4 %, the “Cardiac muscle LDH” value ([8]; 1.0 mg/Kg) was 75.1 ± 23 u/mg pro and the “Cardiac muscle MDA” value ([8]; 1.0 mg/Kg) was 66.6 ± 19.8 nmol/100 mg pro. For the same compound, the “Plasma LDH” value ([8]; 1.0 mg/Kg) was 46.7 ± 8.8 u/ml, the “Plasma MDA” value ([8]; 1.0 mg/Kg) was 24.9 ± 6.6 nmol/mL and the “Cardiac muscle CPK” value ([8]; 1.0 mg/kg) was 886 ± 115 u/100 mg pro. The “Plasma CPK” value ([8]; 1.0 mg/kg) was 192 ± 60 u/100 ml.
